This assay concerns the target T1, histamine-3 receptor (Rattus norvegicus, UniProt Q9QYN8).
T1 construct: Rat cortical membranes (12 mg wet weight/tube) were incubated with; from tissue; host or cells: male Sprague-Dawley rat brain cortex membranes
The assay can be described thus: Histamine-3 receptor binding, displacement of (3H)-N-α-methylhistamine from rat cortical membranes. The following applies: male Sprague-Dawley rat brain cortical membranes; (3H)-N-α-methylhistamine ~0.6 nM; 30 minutes at 25° C.; Cheng-Prusoff.
T1 sequence (Q9QYN8 whole entry): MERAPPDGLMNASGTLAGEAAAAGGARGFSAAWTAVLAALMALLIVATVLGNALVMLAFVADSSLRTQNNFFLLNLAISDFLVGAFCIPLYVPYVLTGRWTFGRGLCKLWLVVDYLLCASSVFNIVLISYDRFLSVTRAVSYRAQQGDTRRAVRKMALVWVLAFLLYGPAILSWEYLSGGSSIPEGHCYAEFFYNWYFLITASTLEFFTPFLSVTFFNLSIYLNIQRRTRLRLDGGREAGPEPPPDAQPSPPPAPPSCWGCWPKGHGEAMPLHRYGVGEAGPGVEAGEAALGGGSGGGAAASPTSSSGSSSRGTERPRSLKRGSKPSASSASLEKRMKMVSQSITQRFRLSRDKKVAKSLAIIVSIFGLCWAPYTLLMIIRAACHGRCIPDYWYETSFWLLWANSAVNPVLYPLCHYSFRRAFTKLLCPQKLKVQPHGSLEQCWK
Method: Briefly, male Sprague-Dawley rat brain cortices were homogenized (1 g tissue/10 mL buffer) in 50 mM Tris-HCl/5 mM EDTA containing protease inhibitor cocktail (Calbiochem) using a polytron set at 20,500 rpm. Homogenates were centrifuged for 20 minutes at 40,000× g. The supernatant was decanted, and pellets were weighed. The pellet was resuspended by polytron homogenization in 40 mL of 50 mM Tris-HCl/5 mM EDTA with protease inhibitors and centrifuged for 20 minutes at 40,000× g. […] Rat cortical membranes (12 mg wet weight/tube) were incubated with (^3H)-N-α-methylhistamine (˜0.6 nM) with or without H3 receptor antagonists in a total incubation volume of 0.5 mL of 50 mM Tris-HCl/5 mM EDTA (pH 7.7). Test compounds were dissolved in DMSO to provide a 20 mM solution, serially diluted and then added to the incubation mixtures prior to initiating the incubation assay by addition of the membranes. Thioperamide (3 μM) was used to determine nonspecific binding. Binding incubations were conducted for 30 minutes at 25° C. and terminated by addition of 2 mL of ice cold 50 mM Tris-HCl (pH 7.7) and filtration through 0.3% polyethylenimine-soaked Unifilter plates (Packard). These filters were washed 4 additional times with 2 mL of ice-cold 50 mM Tris-HCl and dried for 1 hour. Radioactivity was determined using liquid scintillation counting techniques. Results were analyzed by Hill transformation and Ki values were determined using the Cheng-Prusoff equation.
What is called Ki is a measure of affinity in units of concentration, obtained from inhibition or displacement. Consider `CC1CCCN1C(=O)c1ccc(-c2ccc(OCCCN3[C@H](C)CC[C@H]3C)cc2)cc1` (stereo partly drawn) [Example 3, (2R,5R)-2,5-dimethyl-1-[3-({4′-[(2-methyl-1-pyrrolidinyl)carbonyl][1,1′-biphenyl]-4-yl}oxy)propyl]pyrrolidine], for which the inhibitory constant (Ki) is 1 nM.

On to `CCN(CC)CCCOc1ccc(-c2ccc(C(=O)N3[C@H](C)CC[C@H]3C)cc2)cc1` [Example 5, 3-[(4′-{[(2R,5R)-2,5-dimethylpyrrolidinyl]carbonyl}[1,1′-biphenyl]-4-yl)oxy]-N,N-diethyl-1-propanamine], for which the inhibition constant (Ki) was 13.8 nM.

As for `CC1CCN(CCCOc2ccc(-c3ccc(C(=O)N4[C@H](C)CC[C@H]4C)cc3)cc2)CC1` [Example 7, 1-{3-[(4′-{[(2R,5R)-2,5-dimethylpyrrolidinyl]carbonyl}[1,1′-biphenyl]-4-yl)oxy]propyl}-4-methylpiperidine], the affinity corresponds to a Ki of 3.66 nM.

Regarding `CN(CCCOc1ccc(-c2ccc(C(=O)N3CCCC3)cc2)cc1)[C@@H]1CCN(Cc2ccccc2)C1` [Example 12, N-[(3R)-1-benzylpyrrolidinyl]-N-methyl-N-(3-{[4′-(1-pyrrolidinylcarbonyl)[1,1′-biphenyl]-4-yl]oxy}propyl)amine], the inhibition constant Ki came to 384 nM.

In turn, `CC1CCN(C(=O)c2ccc(-c3ccc(OCCCN4[C@H](C)CC[C@H]4C)cc3)cc2)CC1` [Example 9, 1-[(4′-{3-[(2R,5R)-2,5-dimethylpyrrolidinyl]propoxy}[1,1′-biphenyl]-4-yl)carbonyl]-4-methylpiperidine] came in with an inhibition constant (Ki) of 2.63 nM. Against the preceding compound, the Ki is about 150-fold lower.

In the case of `CC(C)NCCCOc1ccc(-c2ccc(C(=O)N3[C@H](C)CC[C@H]3C)cc2)cc1` [Example 4, 3-[(4′-{[(2R,5R)-2,5-dimethylpyrrolidinyl]carbonyl}[1,1′-biphenyl]-4-yl)oxy]-N-isopropyl-1-propanamine], the Ki amounted to 507 nM.

For `O=C(c1ccc(-c2ccc(OCCCN3CCC[C@H]3CO)cc2)cc1)N1CCCC1` [Example 14, [(2S)-1-(3-{[4′-(1-pyrrolidinylcarbonyl)[1,1′-biphenyl]-4-yl]oxy}propyl)pyrrolidinyl]methanol], the affinity, expressed as Ki, was 6.07 nM. Compared with the last compound, the Ki is about 84-fold lower.

In turn, `C[C@H](c1ccccc1)N(C)CCCOc1ccc(-c2ccc(C(=O)N3CCCC3)cc2)cc1` [Example 11, N-methyl-N-[(1R)-1-phenylethyl]-N-(3-{[4′-(1-pyrrolidinylcarbonyl)[1,1′-biphenyl]-4-yl]oxy}propyl)amine] showed an inhibition constant (Ki) of 363 nM.

`O=C(c1ccc(-c2ccc(OCCCN3CCC[C@@H]3CO)cc2)cc1)N1CCCC1` [Example 13, [(2R)-1-(3-{[4′-(1-pyrrolidinylcarbonyl)[1,1′-biphenyl]-4-yl]oxy}propyl)pyrrolidinyl]methanol] registered a Ki of 80 nM.

As to `O=C(c1ccc(-c2ccc(OCCCN3CCC[C@@H](O)C3)cc2)cc1)N1CCCC1` [Example 16, (3R)-1-(3-{[4′-(1-pyrrolidinylcarbonyl)[1,1′-biphenyl]-4-yl]oxy}propyl)-3-piperidinol], the affinity, expressed as Ki, was 71.5 nM.

For `CC(C)NC(=O)c1ccc(-c2ccc(OCCCN3[C@H](C)CC[C@H]3C)cc2)cc1` [Example 1, 4′-{3-[(2R,5R)-2,5-dimethylpyrrolidinyl]propoxy}-N-isopropyl[1,1′-biphenyl]-4-carboxamide], the Ki came out at 2.84 nM.

Turning to `C[C@@H]1CC[C@@H](C)N1C(=O)c1ccc(-c2ccc(OCCCN3CCOCC3)cc2)cc1` [Example 8, 4-{3-[(4′-{[(2R,5R)-2,5-dimethylpyrrolidinyl]carbonyl}[1,1′-biphenyl]-4-yl)oxy]propyl}morpholine], the affinity, expressed as Ki, was 114 nM.

The compound `C[C@@H]1CCC[C@H](C)N1CCCOc1ccc(-c2ccc(C(=O)N3CCCC3)cc2)cc1` [Example 15, (2R,6S)-2,6-dimethyl-1-(3-{[4′-(1-pyrrolidinylcarbonyl)[1,1′-biphenyl]-4-yl]oxy}propyl)piperidine] displayed a Ki of 7.18 nM.

The record behind these values is patent US20020111340A1, “Aminoalkoxybiphenylcarboxamides as histamine-3 receptor ligands and their therapeutic applications” (priority 2000, published 2002).
